Here are results for 16 compounds from patent publication US4424229A, “Fluorine containing 2,4,5-triphenylimidazoles” (A/S Dumex (Dumex Ltd.), priority 1982, dated 1984).

One data set can be described thus: in vivo. The settings on record: mouse; for LD50 at 168 h: po, read-out: Acute toxicity LD50. On the procedure: Test for acute toxicity (LD50) in mice
The test substance was administered by gavage.

A short description of data set [1]: Tests for analgesic activity (general). The class given is in vivo, mice; rats. Conditions: compared with the compounds of the invention, or general. The protocol: (§1) Tests for analgesic activity
(§2) 1. Writhing test in mice. (SPF females of the strain NMRI/BOM, weighing 20-25 g). The test substance was administered by gavage 1/2 hour prior to an intraperitoneal injection of acetic acid. The number of writhing movements in 20 minutes was counted.
2. Randall-Selitto test in rats. (SPF males of the strain Sprague-Dawley, weighing 90-100 g). The test was performed on the whole as described by Randall and Selitto: Arch. Int. Pharmacodyn. Ther. 111, 409 (1957). An analgesia-meter of the make Ugo Basile was used and the test substance was administered by gavage 2 hours after injection of a suspension of brewer's yeast into the rat paw.

The test system of data set [2] is arachidonic acid induced aggregation of human platelet rich plasma. Nature of the data set: Platelet aggregation inhibition test (arachidonic acid induced, human platelet rich plasma). Format: cell-based. Conditions: AA = arachidonic acid. The protocol:
Platelet aggregation inhibition test The ability of the test substance to inhibit arachidonic acid induced aggregation of human platelet rich plasma was tested in a HU aggregometer (from H. Upchurch & Co. Ltd.).

Data set [3] concerns acetic acid induced writhing movements. Description: Writhing test in mice (acetic acid). The settings on record: Mus musculus, po, 20 min, read-out: Analgesic ED50, writhing test. The class given is in vivo, mice (NMRI/BOM). On the procedure: as §1, §2
(Writhing tests count abdominal constrictions after an irritant is injected.)

For another data set, the target named is PG-synthetase. Nature of the data set: Prostaglandin-synthetase inhibition test (Vane). Format: biochemical. Conditions: AA = arachidonic acid.
Data set [4] relates to arachidonic acid induced bronchoconstrictions. Description: Inhibition of arachidonic acid induced bronchoconstrictions in guinea-pigs. Format: in vivo. Conditions: Cavia porcellus, read-out: Inhibition of arachidonic acid induced bronchoconstrictions ID50. On the procedure:
Inhibition of arachidonic acid (AA) induced bronchoconstrictions in guinea-pigs. Test compounds were given intravenously to anaesthetized guinea-pigs 5 min. before intravenous injection of AA (200-500 μg/kg). Bronchial pressure was measured and percent inhibition calculated as compared to the mean of 3 preceding AA-induced control constrictions obtained after injection of vehicle in the same animal.

Data set [5] relates to carrageenin-injected rat paw. Description: Test for antiinflammatory activity in rats (carrageenin paw). Format: in vivo, rats (Sprague-Dawley). Conditions: po, read-out: Antiinflammatory test ED50. The protocol: Test for antiinflammatory activity in rats SPF males of the strain Sprague-Dawley, weighing~150 g were used. The test was performed according to Winter et al.: Proc. Soc. […] The test substance was given by gavage 1 hour prior to injection of a carrageenin-suspension into the rat paw.
On the technique in general: Carrageenan injected into the paw causes an acute inflammation.

A further data set has as its system stomach ulcers. Description: Ulcerogenic activity in rats. The class given is in vivo, rats (Sprague-Dawley). The settings on record: rats, gavage, 5 hours. On the procedure:
(§3) Ulcerogenic activity in rats
(§4) SPF males of the strain Sprague-Dawley weighing 180-250 g were used. 5 hours after administration by gavage of the test substance the rates were killed by an overdose of ether. The stomachs were removed and opened along the greater curvature. The number of ulcers was assessed and compared to control rats.

The test system of data set [6] is brewer's yeast injected rat paw. Description: Randall-Selitto test in rats (analgesia-meter, brewer's yeast paw). Format: in vivo, rats (Sprague-Dawley). The settings on record: po, gavage 2 hours after brewer's yeast in paw, read-out: Analgesic ED50, analgesia-meter. On the procedure: Tests for analgesic activity 2. Randall-Selitto test in rats. (SPF males of the strain Sprague-Dawley, weighing 90-100 g). The test was performed on the whole as described by Randall and Selitto: Arch. Int. Pharmacodyn. Ther. 111, 409 (1957).

The nature of data set [7]: Ulcerogenic activity in rats. The settings on record: rat, in vivo, po. Format: in vivo, rats (Sprague-Dawley). The protocol: as §3, §4
Setting [8] is: mice, gavage 1/2 hour before i.p. acetic acid, writhings in 20 minutes.
[9] abbreviates: guinea-pigs, intravenous, 5 min before i.v. AA (200-500 μg/kg).

Molecules are shown by their SMILES. Where two headings read alike, the source gives them in different places. Bounds are passed on as bounds.

Turning to `COc1ccc(-c2nc(C(F)(F)F)[nH]c2-c2ccc(OC)cc2)cc1` [Compound 11, 2-Trifluormethyl-4,5-bis(4-methoxyphenyl)imidazole, reference compound], the “Toxicity (in words)” value in “in vivo” is recorded as “higher toxicity than the compounds of the present invention”. Also, the “Analgesic activity (in words)” value in data set [1] was “weaker analgesic activity”. In addition, in data set [2], the “Inhibition of platelet aggregation IC100” value was 0.06 μg/190 μg AA. The ED50 in data set [3] (setting [8]) came out at 75 mg/kg.
As to `COc1ccc(-c2nc(-c3cccc(F)c3)[nH]c2-c2ccc(OC)cc2)cc1` [Compound 3, 2-(3-Fluorphenyl)-4,5-bis(4-methoxyphenyl)imidazole], the “Inhibition of PG-synthetase IC50” value at PG-synthetase was determined as 0.21 μg/10 μg AA. Further, the “Inhibition of platelet aggregation IC100” value in [2] was 0.12 μg/190 μg AA. For the same compound, the ED50 in data set [3] (setting [8]) stood at 3.2 mg/kg; in [4] (setting [9]), 0.0036 mg/kg.
Turning to `COc1ccc(-c2nc(-c3c(F)cccc3F)[nH]c2-c2ccc(OC)cc2)cc1` [Compound 8, 2-(2,6-Difluorphenyl)-4,5-bis(4-methoxyphenyl)imidazole], the “Inhibition of PG-synthetase IC50” value at PG-synthetase is 0.13 μg/10 μg AA. The “Inhibition of platelet aggregation IC100” value in [2] is reported as 0.012 μg/190 μg AA. The ED50 in data set [3] (setting [8]) was 6.8 mg/kg; in [4] (setting [9]), 0.0049 mg/kg.
Turning to `CC(=O)Oc1ccccc1C(=O)O` [Compound 15, Acetyl salicylic acid, reference compound], the values for the ED50 in data set [5], in data set [3] and in data set [4] (iv) were 350 mg/kg, 100 mg/kg and 0.234 mg/kg, respectively. At PG-synthetase, the “Inhibition of PG-synthetase IC50” value is recorded as 7.61 μg/10 μg AA. Moreover, the “Ulcerogenic activity ED50” value in the data set on stomach ulcers came out at 340 mg/kg. Further, the “Inhibition of platelet aggregation IC100” value in data set [2] is 2.38 μg/190 μg AA.
`COc1ccc(-c2nc(-c3cc(F)cc(F)c3)[nH]c2-c2ccc(OC)cc2)cc1` [Compound 10, 2-(3,5-Difluorphenyl)-4,5-bis(4-methoxyphenyl)imidazole]: the LD50 at 168 h in “in vivo” was above 2000 mg/kg. Moreover, the “Inhibition of PG-synthetase IC50” value on PG-synthetase was found to be 0.38 μg/10 μg AA. Further, the “Inhibition of platelet aggregation IC100” value in data set [2] worked out at 0.12 μg/190 μg AA. Besides, the ED50 in data set [3] (setting [8]) turned out to be 10 mg/kg; in data set [4] (setting [9]), 0.0097 mg/kg.
In the case of `COc1ccc2c(c1)c(CC(=O)O)c(C)n2C(=O)c1ccc(Cl)cc1` [Compound 13, Indomethacin, reference compound], the ED50 in [6] was found to be 0.36 mg/kg; in data set [5] it was 28 mg/kg; in data set [3] it was 8 mg/kg; in data set [4] (iv), 0.115 mg/kg. In addition, the “Inhibition of PG-synthetase IC50” value at PG-synthetase amounted to 0.65 μg/10 μg AA. In the data set on stomach ulcers, the “Ulcerogenic activity ED50” value was determined as 9.7 mg/kg. Moreover, the “Inhibition of platelet aggregation IC100” value in data set [2] is recorded as 1.19 μg/190 μg AA.
As to `CC(C)(C)NCC(O)c1ccc(O)c(CO)c1` (stereo not shown) [Compound 16, Salbutamol, reference compound], the ED50 in data set [4] (setting [9]) turned out to be 0.016 mg/kg.
On to `COc1ccc(-c2nc(-c3cc(F)ccc3F)[nH]c2-c2ccc(OC)cc2)cc1` [Compound 7, 2-(2,5-Difluorphenyl)-4,5-bis(4-methoxyphenyl)imidazole], for which, at PG-synthetase, the “Inhibition of PG-synthetase IC50” value is recorded as 1.71 μg/10 μg AA. In addition, the “Inhibition of platelet aggregation IC100” value in data set [2] worked out at 0.024 μg/190 μg AA. Also, the ED50 in data set [3] (setting [8]) was 16 mg/kg; in [4] (setting [9]) it was 0.0024 mg/kg.
Turning to `COc1ccc(-c2nc(-c3ccccc3F)[nH]c2-c2ccc(OC)cc2)cc1` [Compound 2, 2-(2-Fluorphenyl)-4,5-bis(4-methoxyphenyl)imidazole], the “Inhibition of PG-synthetase IC50” value on PG-synthetase amounted to 0.23 μg/10 μg AA. Also, the “Inhibition of platelet aggregation IC100” value in [2] is listed as 0.024 μg/190 μg AA. For the same compound, the results for the ED50 in data set [3] (setting [8]) and in [4] (setting [9]) were 15 mg/kg and 0.0106 mg/kg, respectively.
For the compound `COc1ccc(-c2nc(-c3cccc(F)c3F)[nH]c2-c2ccc(OC)cc2)cc1` [Compound 5, 2-(2,3-Difluorphenyl)-4,5-bis(4-methoxyphenyl)imidazole], the LD50 at 168 h in “in vivo” was determined as 3120 mg/kg. For the same compound, the “Inhibition of PG-synthetase IC50” value at PG-synthetase amounted to 0.21 μg/10 μg AA. Also, the “Inhibition of platelet aggregation IC100” value in data set [2] is given as 0.024 μg/190 μg AA. Besides, the ED50 in data set [3] (setting [8]) was determined as 4.6 mg/kg; in [4] (setting [9]) it was 0.0087 mg/kg.
With `COc1ccc2cc([C@H](C)C(=O)O)ccc2c1` [Compound 14, Naproxen, reference compound], the “Inhibition of PG-synthetase IC50” value on PG-synthetase amounted to 0.49 μg/10 μg AA. The “Ulcerogenic activity ED50” value in the data set with stomach ulcers came out at 19.5 mg/kg.
`COc1ccc(-c2nc(-c3ccc(F)c(F)c3)[nH]c2-c2ccc(OC)cc2)cc1` [Compound 9, 2-(3,4-Difluorphenyl)-4,5-bis(4-methoxyphenyl)imidazole]: the ED50 was found to be 0.062 mg/kg in data set [6], 1.9 mg/kg in data set [3] (setting [8]) and 0.0115 mg/kg in data set [4] (setting [9]). On PG-synthetase, the “Inhibition of PG-synthetase IC50” value is given as 0.11 μg/10 μg AA. Further, in data set [7], the TD50 at 5 h was 45 mg/kg. The “Inhibition of platelet aggregation IC100” value in [2] is given as 0.006 μg/190 μg AA.
In the case of `COc1ccc(-c2nc(C(C)C)[nH]c2-c2ccc(OC)cc2)cc1` [Compound 12, 2-Isopropyl-4,5-bis(4-methoxyphenyl)imidazole, reference compound], the “Analgesic activity (in words)” value in [1] was “much weaker analgesic activity than the compounds of the present invention”. The ED50 in data set [3] (setting [8]) is 200 mg/kg.
For the compound `COc1ccc(-c2nc(-c3ccc(F)cc3)n(CCC(=O)O)c2-c2ccc(OC)cc2)cc1` [Compound 1, 1-(2-Carboxyethyl)-2-(4-fluorphenyl)-4,5-bis(4-methoxyphenyl)imidazole, reference compound], the ED50 in [3] (setting [8]) is above 200 mg/kg.
Take `COc1ccc(-c2nc(-c3ccc(F)cc3)[nH]c2-c2ccc(OC)cc2)cc1` [Compound 4, 2-(4-Fluorphenyl)-4,5-bis(4-methoxyphenyl)imidazole]: the “Inhibition of PG-synthetase IC50” value at PG-synthetase is 0.18 μg/10 μg AA. Further, the “Inhibition of platelet aggregation IC100” value in data set [2] came out at 0.048 μg/190 μg AA. The ED50 was 5 mg/kg in data set [3] (setting [8]) and 0.0047 mg/kg in [4] (setting [9]).
As to `COc1ccc(-c2nc(-c3ccc(F)cc3F)[nH]c2-c2ccc(OC)cc2)cc1` [Compound 6, 2-(2,4-Difluorphenyl)-4,5-bis(4-methoxyphenyl)imidazole], the “Inhibition of PG-synthetase IC50” value at PG-synthetase amounted to 0.27 μg/10 μg AA. The compound also yielded a TD50 at 5 h in data set [7] of 1580 mg/kg. For the same compound, the “Inhibition of platelet aggregation IC100” value in [2] came to 0.12 μg/190 μg AA. Besides, the ED50 in [3] (setting [8]) was determined as 4 mg/kg; in [4] (setting [9]) it was 0.0021 mg/kg.

Broadly, the LD50 is the dose expected to kill half of the subjects tested.
